# In US20210393549A1, “New use of R-enantiomer of adrenergic beta 2 receptor agonists for treatment of inflammatory bowel disease and its extra intestinal manifestations” (priority 2018, published 2021):
# “Also recorded” adds a separate entry of the source. Read-outs that look alike come from different tables or passages of the source.
# Key:
# TNBS-induced colitis = TNBS-induced colitis (model for Crohn's disease); format: in vivo, Male mice
# Source text: Male mice colitis was induced by rectal co-administration of ethanol and TNBS (Trinitrobenzenesulfonic acid). Severe colitis in mice that was characterized by weight loss and diarrhea. Histologically there were loss of normal structures, visible discrete epithelioid granuloma, multiple erosive lesions, massive transmural inflammation infiltration of lymphocytes, and the loss of goblet cells. […] There was significant alleviation of lesions, few inflammatory infiltration with growing crypts and recovery mucosa epithelia along the column. […] In addition, in TNBS treated colitis mice, there were perianal symptoms: erythema, abscesses and ulcers found in some mice, which may lead to perianal fissures or fistulas. […] The therapeutically effects of R-salbuterol, R-clenbuterol and R-bambuterol on the symptoms in TNBS induced Crohn's disease has never been reported in prior art.
# [1] = tested on: DSS induced acute colitis; conditions: for colon histology (H&E), in words: Example 1, compared with untreated DSS mice; for Hist score (histological score): epithelium 0-4 plus infiltration 0-4; for Hist score (histological score) / Col Length (colon length): tenth day; for Hist score (histological score) / FOB (fecal occult blood) / Weight / DAI (disease active index) / Col Length (colon length): 1 mg/kg (R-B, S-B 10 mg/kg; RS-C 2 mg/kg); for Hist score (histological score) / FOB (fecal occult blood) / Weight / Col Length (colon length): mean ± SD; for FOB (fecal occult blood): grade 0, 2, 4; for FOB (fecal occult blood) / Weight / Col Length (colon length): i.g. daily 8 days; for DAI (disease active index): score 0 to 12, i.g. daily 8 days from 2nd day of DSS, n=5
# Source text: In one embodiment, IBD was induced in mice by add DSS into drink water for 7 days. […] (Cooper, S. et al., Clinic pathologic study of dextran sulfate sodium experimental murine colitis, Laboratory Investigation, vol. 69, no. 2, p. 238-249, 1993)
# The mice were scarified at day 10th for anatomy and histology evaluations. […] Each of the above histological features was scored individually and added together which is then collectively expressed as “histological score”, for quantitative evaluation (Cooper, S. et al., above).
# Male C57BL mice (8-10 weeks, 18-20 g) were grouped into control (drinking water only), DSS and DSS plus treatment groups (n=5). Acute colitis was induced by feeding mice with 2% (w/v) dextran sulfate sodium (DSS) (molecular mass 36-50 kDa) added to the drinking water given ad libitum for 7 days. At the end of seventh day, DSS was removed and animals received only drinking water for 2 days. The animals were euthanized for anatomical and histological examination at the tenth day after DSS ingestion.
# R-salbutamol (R-S) (1 mg/kg, S-salbutamol (S-S) (1 mg/kg), R-terbutaline (R-T) (1 mg/kg), S-terbutaline (S-T) (1 mg/kg), R-bambuterol (10 mg/kg), S-bambuterol (S-B) (10 mg/kg), R-clenbuterol (R-C) (1 mg/kg), RS-clenbuterol (RS-C) (2 mg/kg) were administered i.g. daily, starting from the 2nd day of DSS induction for consecutive 8 days. Dexamethasone (Dex), 1 mg/kg) was used as a reference drug.
# Evaluation of disease symptoms and histological changes Disease activity index (DAI): Animals were monitored daily for weight, water/food consumption, morbidity, stool consistency and fecal blood. […] The colon length was recorded as an indicator of inflammation. The entire colon was cut open longitudinally and gently flushed with sterile phosphate-buffered saline (PBS) to remove any traces of feces for pathology preparation. Colon segments were fixed in 10% neutral buffered formalin. Tissues were embedded in paraffin, sectioned, mounted on slides. H&E-stained paraffin section images were acquired. Pathological evaluation was conducted in a blinded manner.
# Histological Score: the scores were given as follows: epithelium, 0=normal morphology, 1=loss of goblet cells, 2=loss of goblet cells in large areas, 3=loss of crypts, and 4=loss of crypts in large areas; and inflammation cells infiltration, 0=no infiltrate, 1=infiltrate around the crypt basis, 2=infiltrate reaching the muscularis mucosae, 3=extensive infiltration reaching the muscularis mucosae and thickening of the mucosa with abundant edema, and 4=infiltration of the submucosa. Data were presented as mean±the standard deviation (SD).
# [2] = tested on: knee joints (articular cartilage, meniscus); experiment: Damage of knee joints in DSS induced IBD mice; format: in vivo; conditions: compared with untreated DSS mice
# Source text: In one embodiment, in DSS induced IBD mice, there was also a damage of knee joints. The articular cartilage structure became thinner and partially destroyed. The chondrocytes were degenerated, decreased and clustered. The meniscuses were damaged and lost its structural integrity. In X-ray, the layer of articular cartilage was thinner and bone structure was decreased. […] The articular cartilage and bone structure increased toward normal.
# [3] = tested on: IMQ-induced Psoriasis-Like Skin lesions; experiment: IMQ-induced psoriasis-like skin lesions; format: in vivo, mice; conditions: dorsal skin, IMQ-induced psoriasis mice
# Description: Mice were divided into control, psoriasis and psoriasis plus treatment groups, (n=8 in each group). Psoriasis were induced by topical application of imiquimod cream (62.5 mg) on shaved dorsal skin for seven consecutive days. Vaseline was used in control group. There were four treatment groups: three doses of R-salbutamol (R-Sal) (0.5 mg, 1 mg, 2 mg/kg) and Dexamethasone (1 mg/kg) as positive control. All the treatments and same volume of saline (in control group) were administered orally. In some experiment, R-bambuterol (long-last beta2 agonist) was used as an additional treatment group (n=3). Psoriasis Area Severity Index were used for evaluation. Each of the scores for erythema, scaling and skin thickness were measured separately and then group together as a calculative score. (FIG. 2)
# [4] = tested on: DSS induced sub-acute colitis; experiment: Prolonged (two weeks) treatment in DSS induced sub-acute colitis; format: in vivo, mice; conditions: evaluation at 23rd day, salbutamol 1 mg/kg, bambuterol 10 mg/kg
# Source text: Same as example 2, except. 1), Two Weeks Treatment within a Three Weeks of Study
# DSS was removed from drinking water at the end of 1st week. The treatments were started at 1st day for consecutive 14 days (2 weeks). Only drinking water given for the 3rd week. The evaluation and examination were made at 23rd day as did in example 1.
# [5] = tested on: hemorrhoid inflammation symptoms; experiment: Hemorrhoid inflammation symptoms, oral or topical; format: in vivo; conditions: given either orally or topically
# Source text: These perianal pathological changes somewhat similar to hemorrhoid inflammation symptoms. […] This new used of beta2 agonists in treatment of hemorrhoid inflammation symptoms has never been disclosed in prior art.
# [6] = tested on: DSS induced sub-acute colitis; format: in vivo; set-up: DAI (disease active index) / FOB (fecal occult blood) / Hist score (histological score): scale not given here; Weight / Col Length (colon length): unit not given here; conditions: for Col Length (colon length) / DAI (disease active index) / FOB (fecal occult blood) / Hist score (histological score) / Weight: one week treatment, evaluation at 23rd day, R-S, S-S 1 mg/kg, R-B, S-B 10 mg/kg; for fecal occult blood, in words: day 14th and 22nd
# Source text: This invention also disclosed the used of R-salbutamol for treatment of sub acute or chronic phases of IBD. In one embodiment, IBD was induced by DSS as mentioned above, along with the treatment of R-salbutamol, at day 7th, DSS was removed and replaced with drinking water for additional 2 weeks. The disease active index (DAI) of mice was examined and evaluated periodically. The mice were scarified for pathological and histological evaluations at day of 23rd. In DSS induce IBD mice, there were significant loss of weight and fecal occult blood at day 14th and 22nd. The overall condition of colitis was severe although there was slightly improvement comparing the day 7th. The colon-rector length was significant shortened, and histological score were significant higher from control. In mice with DSS induced colitis, there were significant mononuclear leucocytes infiltration, few newly grew crypts with architectural disarray, denegation of epithelia, mucosa aberrant. There was also deep mucosal lymphocytosis, destruction of lamina propria and sometimes, transmural inflammation.
# Same as example 1, except • 1), Three weeks' study with one week treatment.
# DSS and all the treatment was removed and replaced with drinking water at the end of 1st week. Mice were given drink water and food ad libitum for additional 2 weeks.
# psoriasis and eczema = experiment: Oral administration in rats, psoriasis and eczema; format: in vivo
# [7] = tested on: acne, maliaria, hives and eczema; experiment: Topical use on acne, maliaria, hives and eczema; format: in vivo
# [8] = sub-acute or chronic DSS colitis, compared with untreated DSS mice
# [9] = acute DSS colitis, compared with untreated DSS mice
SMILES,"colon histology (H&E), in words [1]",Hist score (histological score) [1],FOB (fecal occult blood) [1],Weight [1],DAI (disease active index) [1],Col Length (colon length) [1],"damage of articular cartilage, meniscus and bone structure of knee joints [2]",histology of psoriasis skin lesions (HE) [3],"DAI, in words [4]","histological score, in words [4]",hemorrhoid inflammation symptoms [5],Col Length (colon length) [6],DAI (disease active index) [6],FOB (fecal occult blood) [6],Hist score (histological score) [6],Weight [6],"DAI, in words [6, 8]","histological index / histological score, in words [6, 8]","fecal occult blood, in words [6, 8]",psoriasis and eczema (psoriasis and eczema),also measured
"CN(C)C(=O)Oc1cc(OC(=O)N(C)C)cc([C@@H](O)CNC(C)(C)C)c1 [R-B, R-bambuterol]",greatly improved,5 ± 0.5,1 ± 0.5,92 ± 3.3,6,7.2 ± 0.2^,significantly ameliorated,mostly recovered,return toward normal,return toward normal,significantly alleviated,7.9 ± 0.3,6,1.1 ± 0.5,4 ± 1,112 ± 0.6,significantly improved,significantly improved; also recorded: significantly ameliorated,significantly reduced,,"perianal manifestations (erythema, abscesses, ulcers) (TNBS-induced colitis; TNBS treated mice): significantly alleviated"
"CC(C)(C)NC[C@H](O)c1cc(Cl)c(N)c(Cl)c1 [R-C, R-clenbuterol]",greatly improved,4.5 ± 0.5^,2 ± 0.5,89 ± 2.0,5,7 ± 0.7,,,,,significantly alleviated,,,,,,significantly improved,significantly improved,,significantly ameliorate,"submucosa fibrosis and narrowing of intestinal lumen (TNBS-induced colitis; TNBS treated mice): not seen; weight loss, diarrhea, colon length versus normal control mice (TNBS-induced colitis; oral administration): No significant different; disease condition of TNBS colitis, in words (TNBS-induced colitis; oral administration (R-enantiomers)): great ameliorated; symptoms of acne, maliaria, hives and eczema [7]: significantly alleviated"
"CC(C)(C)NC[C@H](O)c1cc(O)cc(O)c1 [R-T, R-terbutaline]",greatly improved,6.0 ± 1^,2 ± 0,88 ± 1.7,8,6.6 ± 0.3,,,,,,,,,,,significantly improved,significantly improved,,significantly ameliorate,"symptoms of acne, maliaria, hives and eczema [7]: significantly alleviated"
"CC(C)(C)NC[C@@H](O)c1ccc(O)c(CO)c1 [S-S, S-salbutamol]",no signs of improvements,7.9 ± 0.5,4.5 ± 0.5,80 ± 2.3,13,6.0 ± 0.9,exacerbated,worsened the psoriasis histology,markedly higher than untreated DSS group,markedly higher than untreated DSS group,,6.5 ± 0.9,13,4.5 ± 0.3,7.7 ± 0.5,95 ± 0.8,much worse,markedly higher than untreated DSS mice,more severe,,"toxic effects on the bowel ([1]; S-enantiomers in DSS mice): toxic to the bowel; effects in prevent and treatment of DSS induced IBD, in words ([1]; acute DSS colitis): no amelioration or therapeutic effects at all; DAI, in words [1, 9]: significantly exacerbated; FOB, in words [1, 9]: significantly worsened; histological score, in words [1, 9]: significantly higher than untreated DSS mice; length of colon-rector / shortening of large bowel, in words [1, 9]: further shortened; length of colon-rectors, in words ([6]; sub-acute DSS colitis, compared with untreated DSS mice): shorter; body weights, in words ([6]; sub-acute or chronic DSS colitis): lower"
